Experimental data from patent US20230051589A1, “COMPOUNDS AND COMPOSITIONS FOR TREATING CONDITIONS ASSOCIATED WITH NLRP ACTIVITY” (Novartis AG, priority 2018, published 2023).

The compounds below were run on IL-1β production in PMA-differentiated THP-1 cells (assay: IL-1β production in PMA-differentiated THP-1 cells stimulated with gramicidin (hTHP-1 assay, 2% fetal bovine serum; Procedures 1-3)). Conditions: Homo sapiens, THP-1, Table B1; hTHP-1 assay containing 2% fetal bovine serum, gramicidin stimulation, IL-1β readout; read-out: hTHP-1 IC50 (average).
Type: cell-based, human
Procedure, shortened: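 IL-1β released into supernatants was read by HTRF after 2 h gramicidin (5 μM) challenge. Before challenge, compounds (3-fold dilutions, top 100 μM, 0.37% DMSO) were given 1 h on THP-1 cells differentiated with PMA (20 ng/ml, 16-18 h) and held in 2% FBS medium.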

IC50 [nM]	Compound
1000 to 5000	C#CCCC(=O)N(C)Cc1ccc(S(N)(=O)=NC(=O)Nc2c3c(cc4c2CCC4)CCC3)cc1 (single isomer, unassigned) [Example 312, (S) or (R)-N-(4-(N′-((1,2,3,5,6,7-hexahydro-s-indacen-4-yl)carbamoyl)-sulfamidimidoyl)benzyl)-N-methylpent-4-ynamide]

Same assay, conditions: Homo sapiens, THP-1, Table B3; hTHP-1 assay containing 2% fetal bovine serum, gramicidin stimulation, IL-1β readout; read-out: hTHP-1 IC50

IC50 [nM]	Compound
1000 to 5000	CC(C)(O)c1cccc(S(N)(=O)=NC(=O)Nc2c3c(cc4c2CCC4)CCC3)n1 (stereo not shown) [Example 763, N′-((1,2,3,5,6,7-hexahydro-s-indacen-4-yl)carbamoyl)-6-(2-hydroxypropan-2-yl)pyridine-2-sulfonimidamide]
40 to 200	NS(=O)(=NC(=O)Nc1c2c(cc3c1CC3)CCC2)c1cc2c(s1)CCNC2C(F)F (stereo not shown) [Example 781, 4-(Difluoromethyl)-N′-((2,4,5,6-tetrahydro-1H-cyclobuta[f]inden-3-yl)carbamoyl)-4,5,6,7-tetrahydrothieno[3,2-c]pyridine-2-sulfonimidamide]
40 to 200	NS(=O)(=NC(=O)Nc1c2c(cc3c1CCC3)CCC2)c1sc(C(O)(CO)CO)nc1CO (stereo not shown) [Example 733, N′-((1,2,3,5,6,7-hexahydro-s-indacen-4-yl)carbamoyl)-4-(hydroxymethyl)-2-(1,2,3-trihydroxypropan-2-yl)thiazole-5-sulfonimidamide]

Same assay, conditions: Homo sapiens, THP-1, hTHP-1 assay containing 2% fetal bovine serum, Table B2, class symbols; read-out: IC50

Compound	IC50 [nM]
N[S@](=O)(=NC(=O)Nc1c2c(cc3c1CCC3)CCC2)c1ccc([C@@H]2CCN2)cc1 [Compound 802c]	5000 to 30000
CC(C)(O)c1cc(C#N)cc(S(N)(=O)=NC(=O)Nc2c3c(c(C#N)c4c2CCC4)CCC3)c1 (stereo not shown) [Example 482, 3-Cyano-N′-((8-cyano-1,2,3,5,6,7-hexahydro-s-indacen-4-yl)carbamoyl)-5-(2-hydroxypropan-2-yl)benzenesulfonimidamide]	1000 to 5000
CC(C)n1nc(S(N)(=O)=NC(=O)Nc2c3c(cc4c2C(=O)CC4)CCC3)cc1CO (stereo not shown) [Compound 907]	1000 to 5000
CC(C)(O)c1cnc([S@](N)(=O)=NC(=O)Nc2c3c(cc4c2C(O)CC4)CCC3)s1 (stereo partly drawn) [Example 510, (R)-N′-((3-hydroxy-1,2,3,5,6,7-hexahydro-s-indacen-4-yl)carbamoyl)-5-(2-hydroxypropan-2-yl)thiazole-2-sulfonimidamide]	200 to 1000
CN(Cc1ccc(S(N)(=O)=NC(=O)Nc2c3c(cc4c2CC4)CCC3)c(F)c1)C1CCC1 (stereo not shown) [Compound 891]	1000 to 5000
CN(C)Cc1ccc(S(N)(=O)=NC(=O)Nc2c3c(cc4c2CCC4)CCC3)s1 (stereo not shown) [Compound 889]	1000 to 5000

Continued, values first:

IC50 [nM]	Compound
1000 to 5000	CCC(C)NCc1ccc([S@](N)(=O)=NC(=O)Nc2c3c(cc4c2CCC4)CCC3)cc1 (stereo partly drawn) [Example 702, (R)-4-((sec-butylamino)methyl)-N′-((1,2,3,5,6,7-hexahydro-s-indacen-4-yl)carbamoyl)-benzenesulfonimidamide]
1000 to 5000	NS(=O)(=NC(=O)Nc1c2c(cc3c1CCC3)CCC2)c1cccc(CN2CCOCC2)c1 (single isomer, unassigned) [Example 550, (R) or (S)-N′-((1,2,3,5,6,7-hexahydro-s-indacen-4-yl)carbamoyl)-3-(morpholinomethyl) benzenesulfonimidamide]
40 to 200	COCCOC[C@@](C)(O)c1ncc(S(N)(=O)=NC(=O)Nc2c3c(cc4c2CCC4)CCC3)s1 (stereo partly drawn) [Example 684, N′-((1,2,3,5,6,7-hexahydro-s-indacen-4-yl)carbamoyl)-2-((R)-2-hydroxy-1-(2-methoxyethoxy)propan-2-yl)thiazole-5-sulfonimidamide]
200 to 1000	COc1cc(CN(C)C)ccc1S(N)(=O)=NC(=O)Nc1c2c(cc3c1CCC3)CCC2 (single isomer, unassigned) [Example 606, (R) or (S)-4-((dimethylamino)methyl)-N′-((1,2,3,5,6,7-hexahydro-s-indacen-4-yl)carbamoyl)-2-methoxybenzene-sulfonimidamide]
8 to 40	CC(O)(CO)c1ncc(S(N)(=O)=NC(=O)Nc2c3c(cc4c2CCC4)CCC3)s1 (single isomer, unassigned) [Example 626]

Same assay, conditions: Table B1; hTHP-1 assay containing 2% fetal bovine serum, gramicidin stimulation, IL-1β readout; read-out: hTHP-1 IC50 (average)

IC50 [nM]	Compound
5000 to 30000	CC(C)c1cc(C#N)cc(C(C)C)c1NC(=O)N=S(N)(=O)c1cc(C(C)(C)O)cc(C(C)(C)O)c1 (single isomer, unassigned) [Example 198, N′-((4-cyano-2,6-diisopropylphenyl)carbamoyl)-3,5-bis(2-hydroxypropan-2-yl)benzenesulfonimidamide]
1000 to 5000	CC(C)c1ccc(S(N)(=O)=NC(=O)Nc2c3c(cc4c2CCC4)CCC3)cn1 (single isomer, unassigned) [Example 402, (S) or (R)-N′-((1,2,3,5,6,7-hexahydro-s-indacen-4-yl)carbamoyl)-6-isopropyl-pyridine-3-sulfonimidamide]
8 to 40	CC(C)(O)c1ncc([S@](N)(=O)=NC(=O)Nc2c3c(cc4c2CC4)CCC3)s1 [Example 224, (R)-2-(2-hydroxypropan-2-yl)-N′-((2,4,5,6-tetrahydro-1H-cyclobuta[f]inden-3-yl)carbamoyl) thiazole-5-sulfonimidamide]

Same assay, conditions: Table B3; hTHP-1 assay containing 2% fetal bovine serum, gramicidin stimulation, IL-1β readout; read-out: hTHP-1 IC50

IC50 [nM]	Compound
8 to 40	NS(=O)(=NC(=O)Nc1c2c(cc3c1CC3)CCC2)c1sc2c(c1F)CNCC2 (single isomer, unassigned) [Example 833, (R) or (S)-3-fluoro-N′-((2,4,5,6-tetrahydro-1H-cyclobuta[f]inden-3-yl)carbamoyl)-4,5,6,7-tetrahydrothieno[3,2-c]pyridine-2-sulfonimidamide]
8 to 40	CN[C@H](c1ccc(S(N)(=O)=NC(=O)Nc2c3c(cc4c2CC4)CCC3)s1)C1CC1 (single isomer, unassigned) [Example 866, (S, R) or (R, R)-5-(cyclopropyl(methylamino)methyl)-N′-((2,4,5,6-tetrahydro-1H-cyclobuta[f]inden-3-yl)carbamoyl)thiophene-2-sulfonimidamide]
40 to 200	CCn1ccc(S(N)(=O)=NC(=O)Nc2c3c(cc4c2CCC4)CCC3)n1 (single isomer, unassigned) [Example 813, (R) or (S)-1-ethyl-N′-((1,2,3,5,6,7-hexahydro-s-indacen-4-yl)carbamoyl)-1H-pyrazole-3-sulfonimidamide]
5000 to 30000	CC(NC1CCC1)c1ccc(S(N)(=O)=NC(=O)Nc2c3c(cc4c2CC4)CCC3)c(F)c1 (single isomer, unassigned) [Example 849, (S, S) or (R, S) -4-(1-(cyclobutylamino)ethyl)-2-fluoro-N′-((2,4,5,6-tetrahydro-1H-cyclobuta[f]inden-3-yl)carbamoyl)benzenesulfonimidamide]
5000 to 30000	COC1CCc2csc(S(N)(=O)=NC(=O)Nc3c4c(cc5c3CCC5)CCC4)c2C1 (single isomer, unassigned) [Example 858, (S, R) or (R, R)-N′-((1,2,3,5,6,7-hexahydro-s-indacen-4-yl)carbamoyl)-6-methoxy-4,5,6,7-tetrahydrobenzo[c]thiophene-1-sulfonimidamide]

Same assay, conditions: hTHP-1 assay containing 2% fetal bovine serum, Table B2, class symbols; read-out: IC50

Compound	IC50 [nM]
CC(C)(O)c1ccnc(S(N)(=O)=NC(=O)Nc2c3c(c(C#N)c4c2CCC4)CCC3)c1 (stereo not shown) [Example 456, N′-((8-cyano-1,2,3,5,6,7-hexahydro-s-indacen-4-yl)carbamoyl)-4-(2-hydroxypropan-2-yl)pyridine-2-sulfonimidamide]	200 to 1000
CC(C)(O)c1cncc(S(N)(=O)=NC(=O)Nc2c3c(c(C#N)c4c2CCC4)CCC3)c1 (single isomer, unassigned) [Example 522, (R) or (S)-N′-((8-cyano-1,2,3,5,6,7-hexahydro-s-indacen-4-yl)carbamoyl)-5-(2-hydroxypropan-2-yl)pyridine-3-sulfonimidamide]	200 to 1000
CO[C@H]1COc2c(S(N)(=O)=NC(=O)Nc3c4c(cc5c3CC5)CCC4)cnn2C1 (single isomer, unassigned) [Example 535, (S,6R) or (R,6R)-6-methoxy-N′-((2,4,5,6-tetrahydro-1H-cyclobuta[f]inden-3-yl)caibamoyl)-6,7-dihydro-5H-pyrazolo [5,1-b][1,3]oxazine-3-sulfonimidamide]	1000 to 5000
COCc1nc(C(C)(C)O)sc1S(N)(=O)=NC(=O)Nc1c2c(c(C#N)c3c1CCC3)CCC2 (stereo not shown) [Example 454, N′-((8-cyano-1,2,3,5,6,7-hexahydro-s-indacen-4-yl)carbamoyl)-2-(2-hydroxypropan-2-yl)-4-(methoxymethyl)thiazole-5-sulfonimidamide]	200 to 1000

Results, then the compound that gave them:

IC50 [nM]	Compound
1000 to 5000	N=S(=O)(NC(=O)Nc1c2c(cc3c1CCC3)CCC2)c1nn(C(F)F)cc1F (single isomer, unassigned) [Example 711]
200 to 1000	CC(O)(CO)c1ncc(S(N)(=O)=NC(=O)Nc2c3c(cc4c2CCC4)CCC3)s1 (single isomer, unassigned) [Example 628, (S,S) or (R,S)-1,2-dihydroxypropan-2-yl)-N′-((l,2,3,5,6,7-hexahydro-s-indacen-4-yl) carbamoyl) thiazole-5-sulfonimidamide]
200 to 1000	CC(O)(CO)c1ncc(S(N)(=O)=NC(=O)Nc2c3c(cc4c2CCC4)CCC3)s1 (single isomer, unassigned) [Example 627, (R,S) or (S,S)-1,2-dihydroxypropan-2-yl)-N′-((l,2,3,5,6,7-hexahydro-s-indacen-4-yl) carbamoyl) thiazole-5-sulfonimidamide]
200 to 1000	CNC(C)(C)c1ccc(S(N)(=O)=NC(=O)Nc2c3c(cc4c2CCC4)CCC3)cc1 (single isomer, unassigned) [Example 602, (R) or (S)-N′-((1,2,3,5,6,7-hexahydro-s-indacen-4-yl)carbamoyl)-4-(2-(methylamino)propan-2-yl) benzenesuIfonimidamide]
